Patent publication US6664231B1, “Anti-fungal peptides” (priority 1993, dated 2003)
Square brackets hold non-standard residues; d marks the D form. Peptide text beside a SMILES is read from it. Phe(4-NH2) = Nc1ccc(C[C@H](N)C(=O)O)cc1; 1Nal = N[C@@H](Cc1cccc2ccccc12)C(=O)O; 2Nal = N[C@@H](Cc1ccc2ccccc2c1)C(=O)O; d1Nal = N[C@H](Cc1cccc2ccccc12)C(=O)O; d2Nal = N[C@H](Cc1ccc2ccccc2c1)C(=O)O

Tested on: C. albicans (CA-1, Strain SLU-1)
Assay: Radial diffusion assay
Format: cell-based, Candida albicans
Details: for C. albicans pmol/30 mm^2 zone: pmoles of peptide added to well to achieve a 30 mm^2 zone, PROBIT analysis, crude or purified (P′) peptide; for Plate Assay (nmol), crude peptide activity / Plate Assay (nmol), pure peptide activity: nanomoles required to achieve a net 30 mm^2 zone (log titration curve); for Plate Assay (nmol), pure peptide activity: HPLC-purified peptide
Procedure, shortened: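 Yeast at 1×10^6 CFU/mL in agarose underlayer (3% Sabouraud, 10 mM sodium phosphate pH 7.4); 2-fold peptide dilutions in D-PBS from ~1 mg/mL loaded into wells, 3 h at 37° C, then nutrient overlayer overnight. Value: pmol/well giving 30 mm^2 net clear zone, by PROBIT regression.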

Compound	C. albicans pmol/30 mm^2 zone	also measured
CC[C@H](C)[C@H](NC(=O)[C@H](CC(C)C)NC(=O)[C@H](Cc1c[nH]c2ccccc12)NC(=O)[C@H](Cc1ccc(N)cc1)NC(=O)[C@@H](NC(=O)[C@H](CCCCN)NC(=O)[C@H](CO)NC(=O)[C@@H](N)CCCCN)C(C)C)C(=O)N[C@@H](CCC(N)=O)C(=O)N[C@@H](CC(C)C)C(=O)N[C@@H](Cc1ccccc1)C(=O)N[C@@H](Cc1c[nH]cn1)C(=O)N[C@@H](CCCCN)C(=O)N[C@@H](Cc1cccc2ccccc12)C(N)=O [XMP.229]	b (No detectable activity up to 5 μg/well)	
H-KSKVGWLIQLFHKA-NH2 [XMP.44]	578 pmol/30 mm^2 zone	
H-KSKVGWLIQLFHKW-NH2 [XMP.108]	>3219 pmol/30 mm^2 zone	
H-KSKVWLIQLFHKK-NH2 [XMP.11]	645 pmol/30 mm^2 zone	
H-KWLIQL-NH2 [XMP.315]	>5,069 pmol/30 mm^2 zone	C. albicans pmol/30 mm^2 zone (listed as XMP.315P′): >12,853 pmol/30 mm^2 zone
H-LIQLFHK-NH2 [Peptide 310]		Plate Assay (nmol), crude peptide activity: >9.475 nmol
H-VKWLIQLFHK-NH2 [Peptide 292]		Plate Assay (nmol), crude peptide activity: >4.063 nmol
H-QLFHKK-NH2 [XMP.319]	b (No detectable activity up to 5 μg/well)	
H-KSKVKFLIKLFHKK-NH2 [XMP.283]	1,336 pmol/30 mm^2 zone	
H-LIQLFH-NH2 [XMP.317]	b (No detectable activity up to 5 μg/well)	
H-VKWLIQLFH-NH2 [Peptide 296]		Plate Assay (nmol), crude peptide activity: >5.573 nmol
H-IQLFHK-NH2 [XMP.318]	b (No detectable activity up to 5 μg/well)	
H-ASKVGWLIQLFHKK-NH2 [XMP.31]	426 pmol/30 mm^2 zone	
H-KWLIQLFH-NH2 [XMP.302]	>5,497 pmol/30 mm^2 zone	C. albicans pmol/30 mm^2 zone (listed as XMP.302P′): 2,070 pmol/30 mm^2 zone
H-LIQLFHK-NH2 [XMP.310]	>9,475 pmol/30 mm^2 zone	
H-KSKVGWLIQLFLKK-NH2 [XMP.87]	>1536 pmol/30 mm^2 zone	
CC[C@H](C)[C@H](NC(=O)[C@H](CC(C)C)NC(=O)[C@H](Cc1c[nH]c2ccccc12)NC(=O)[C@@H](N)CCCCN)C(=O)N[C@@H](CCC(N)=O)C(=O)N[C@@H](CC(C)C)C(=O)N[C@@H](CCCCN)C(=O)N[C@@H](CCCCN)C(N)=O [XMP.324]	894 pmol/30 mm^2 zone	
CC[C@H](C)[C@H](NC(=O)[C@H](CC(C)C)NC(=O)[C@@H](N)Cc1c[nH]c2ccccc12)C(=O)N[C@@H](CCC(N)=O)C(=O)N[C@@H](CC(C)C)C(=O)N[C@@H](Cc1ccccc1)C(=O)N[C@@H](Cc1c[nH]cn1)C(=O)N[C@@H](CCCCN)C(=O)N[C@@H](CCCCN)C(N)=O [XMP.298]	2,628 pmol/30 mm^2 zone	C. albicans pmol/30 mm^2 zone (listed as XMP.298P′): 1,106 pmol/30 mm^2 zone
H-SKVKWLIQL-NH2 [Peptide 294]		Plate Assay (nmol), crude peptide activity: >4.634 nmol
H-RRWLIQLRR-NH2 [XMP.336]	>7,332 pmol/30 mm^2 zone	C. albicans pmol/30 mm^2 zone (listed as XMP.336P′): h (inactive to 5,268 pmol)
H-KSKVGWLIFLFHKKKSKVGWLIFLFHKK-NH2 [XMP.275]	b (No detectable activity up to 5 μg/well)	

Compound	C. albicans pmol/30 mm^2 zone	also measured
H-SKVKWL-NH2 [XMP.312]	>11,120 pmol/30 mm^2 zone	
CC[C@H](C)[C@H](NC(=O)[C@H](CC(C)C)NC(=O)[C@H](Cc1ccc2ccccc2c1)NC(=O)CNC(=O)[C@@H](NC(=O)[C@H](CCCCN)NC(=O)[C@H](CO)NC(=O)[C@@H](N)CCCCN)C(C)C)C(=O)N[C@@H](CCC(N)=O)C(=O)N[C@@H](CC(C)C)C(=O)N[C@@H](Cc1ccccc1)C(=O)N[C@@H](Cc1c[nH]cn1)C(=O)N[C@@H](CCCCN)C(=O)N[C@@H](CCCCN)C(N)=O [XMP.130] (H-KSKVG[2Nal]LIQLFHKK-NH2)	1159 pmol/30 mm^2 zone	
CC[C@H](C)[C@H](NC(=O)[C@H](CC(C)C)NC(=O)[C@H](Cc1c[nH]c2ccccc12)NC(=O)CNC(=O)[C@@H](NC(=O)[C@H](CCCCN)NC(=O)[C@H](CO)NC(=O)[C@@H](N)CCCCN)C(C)C)C(=O)N[C@@H](CCC(N)=O)C(=O)N[C@@H](Cc1cccc2ccccc12)C(=O)N[C@@H](Cc1ccccc1)C(=O)N[C@@H](Cc1cccc2ccccc12)C(=O)N[C@@H](CCCCN)C(=O)N[C@@H](CCCCN)C(N)=O [XMP.231] (H-KSKVGWLIQ[1Nal]F[1Nal]KK-NH2)	b (No detectable activity up to 5 μg/well)	
H-KVKWLIQLFH-NH2 [XMP.291]	>5,039 pmol/30 mm^2 zone	
H-VKWLIQLFHKK-NH2 [Peptide 289]		Plate Assay (nmol), pure peptide activity: 0.68 nmol; Plate Assay (nmol), crude peptide activity: 1.542 nmol
CC[C@H](C)[C@H](NC(=O)[C@H](CC(C)C)NC(=O)[C@H](Cc1c[nH]c2ccccc12)NC(=O)[C@@H](N)CCCCN)C(=O)N[C@@H](CCC(N)=O)C(=O)N[C@@H](CC(C)C)C(=O)N[C@@H](Cc1ccccc1)C(=O)N[C@@H](Cc1c[nH]cn1)C(=O)N[C@@H](CCCCN)C(N)=O [Peptide 297]		Plate Assay (nmol), pure peptide activity: 0.564 nmol; Plate Assay (nmol), crude peptide activity: 1.817 nmol
H-SKVKWLIQLFHKK-NH2 [Peptide 284]		Plate Assay (nmol), pure peptide activity: 0.373 nmol; Plate Assay (nmol), crude peptide activity: 1.460 nmol
CC[C@H](C)[C@H](NC(=O)[C@H](CC(C)C)NC(=O)[C@@H](N)Cc1c[nH]c2ccccc12)C(=O)N[C@@H](CCC(N)=O)C(=O)N[C@@H](CC(C)C)C(=O)N[C@@H](Cc1ccccc1)C(=O)N[C@@H](Cc1c[nH]cn1)C(=O)N[C@@H](CCCCN)C(N)=O [Peptide 303]		Plate Assay (nmol), pure peptide activity: 1.306 nmol; Plate Assay (nmol), crude peptide activity: >4.694 nmol
H-KSKVGWLIYLFHKK-NH2 [XMP.125]	>3150 pmol/30 mm^2 zone	
H-KSKVKWLIKLFFKFKSKVKWLIKLFFKF-NH2 [XMP.101]	>1040 pmol/30 mm^2 zone	
CC[C@H](C)[C@H](NC(=O)[C@H](CC(C)C)NC(=O)[C@H](Cc1cccc2ccccc12)NC(=O)CNC(=O)[C@@H](NC(=O)[C@H](CCCCN)NC(=O)[C@H](CO)NC(=O)[C@@H](N)CCCCN)C(C)C)C(=O)N[C@@H](CCC(N)=O)C(=O)N[C@@H](Cc1cccc2ccccc12)C(=O)N[C@@H](Cc1ccccc1)C(=O)N[C@@H](Cc1c[nH]cn1)C(=O)N[C@@H](CCCCN)C(=O)N[C@@H](CCCCN)C(N)=O [XMP.223] (H-KSKVG[1Nal]LIQ[1Nal]FHKK-NH2)	b (No detectable activity up to 5 μg/well)	
H-KKKWLIQLKKK-NH2 [XMP.350]	129 pmol/30 mm^2 zone	
CC[C@H](C)[C@H](NC(=O)[C@H](CC(C)C)NC(=O)[C@H](Cc1cccc2ccccc12)NC(=O)CNC(=O)[C@@H](NC(=O)[C@H](CCCCN)NC(=O)[C@H](CO)NC(=O)[C@@H](N)CCCCN)C(C)C)C(=O)N[C@@H](Cc1ccc(N)cc1)C(=O)N[C@@H](CC(C)C)C(=O)N[C@@H](Cc1ccccc1)C(=O)N[C@@H](Cc1c[nH]cn1)C(=O)N[C@@H](CCCCN)C(=O)N[C@@H](CCCCN)C(N)=O [XMP.224] (H-KSKVG[1Nal]LI[Phe(4-NH2)]LFHKK-NH2)	>2,443 pmol/30 mm^2 zone	
H-KSKVGWLIQLFHKF-NH2 [XMP.96]	1856 pmol/30 mm^2 zone	
CC[C@H](C)[C@H](NC(=O)[C@H](CC(C)C)NC(=O)[C@@H](Cc1ccc2ccccc2c1)NC(=O)CNC(=O)[C@@H](NC(=O)[C@H](CCCCN)NC(=O)[C@H](CO)NC(=O)[C@@H](N)CCCCN)C(C)C)C(=O)N[C@@H](CC(C)C)C(=O)N[C@@H](CC(C)C)C(=O)N[C@@H](Cc1c[nH]c2ccccc12)C(=O)N[C@@H](Cc1c[nH]cn1)C(=O)N[C@@H](CCCCN)C(=O)N[C@@H](CCCCN)C(N)=O [XMP.244] (H-KSKVG[d2Nal]LILLWHKK-NH2)	859 pmol/30 mm^2 zone	
CC[C@H](C)[C@H](NC(=O)[C@H](CC(C)C)NC(=O)[C@@H](Cc1cccc2ccccc12)NC(=O)CNC(=O)[C@@H](NC(=O)[C@H](CCCCN)NC(=O)[C@H](CO)NC(=O)[C@@H](N)CCCCN)C(C)C)C(=O)N[C@@H](CCC(N)=O)C(=O)N[C@@H](CC(C)C)C(=O)N[C@@H](Cc1ccccc1)C(=O)N[C@@H](Cc1c[nH]cn1)C(=O)N[C@@H](CCCCN)C(=O)N[C@@H](CCCCN)C(N)=O [XMP.129] (H-KSKVG[d1Nal]LIQLFHKK-NH2)	2117 pmol/30 mm^2 zone	
H-KSKVGWLIRLFHKK-NH2 [XMP.265]	2,996 pmol/30 mm^2 zone	
CC[C@H](C)[C@H](NC(=O)[C@H](CC(C)C)NC(=O)[C@H](Cc1c[nH]c2ccccc12)NC(=O)CNC(=O)[C@@H](NC(=O)[C@H](CCCCN)NC(=O)[C@H](CO)NC(=O)[C@@H](N)CCCCN)C(C)C)C(=O)N[C@@H](CCC(N)=O)C(=O)N[C@@H](CC(C)C)C(=O)N[C@@H](Cc1cccc2ccccc12)C(=O)N[C@@H](Cc1c[nH]cn1)C(=O)N[C@@H](CCCCN)C(=O)N[C@@H](CCCCN)C(N)=O [XMP.109] (H-KSKVGWLIQL[1Nal]HKK-NH2)	>2839 pmol/30 mm^2 zone	
H-KSKVGWLIQFFHKK-NH2 [XMP.113]	947 pmol/30 mm^2 zone	
CC[C@H](C)[C@H](NC(=O)[C@H](CC(C)C)NC(=O)[C@@H](N)Cc1c[nH]c2ccccc12)C(=O)N[C@@H](CCC(N)=O)C(=O)N[C@@H](CC(C)C)C(=O)N[C@@H](Cc1ccccc1)C(=O)N[C@@H](Cc1c[nH]cn1)C(=O)N[C@@H](CCCCN)C(=O)N[C@@H](CCCCN)C(N)=O [Peptide 298]		Plate Assay (nmol), pure peptide activity: 1.106 nmol; Plate Assay (nmol), crude peptide activity: 2.628 nmol
H-SKVKWLIQLF-NH2 [XMP.290]	>2,233 pmol/30 mm^2 zone	
